Assay results: patent publication US20260248922A1, “TREATMENT OF SIGNS, SYMPTOMS AND/OR COMPLICATIONS OF VIRAL, BACTERIAL, PROTOZOAL, AND/OR FUNGAL INFECTIONS BY HIGH PENETRATION PRODRUGS” (priority 2022, published 2026)
Like-named read-outs stand apart in the source and are kept apart here.

Assays:
[1] = rabbit
H1N1 virus [2] = assay: H1N1 virus infection mouse model (Example 66); format: in vivo, mice; conditions: transdermal once a day
Protocol: (§1) A total of seventy mice (7 groups, 10/group) were used in this study. At day 0, mice were anesthetized with isoflurane and held in a dorsal recumbent position for administration of 0.1×TCID50/mouse virus (new batch) by internasal instillation, from day 2 post challenge, mice were received a single dose of different concentrations of test article or vehicle control once a day up to 15th day with dose initiation on day 2 post challenge. Group 1 served as an infected control group and was treated with vehicle (35% ethanol). […] Mice were observed following viral challenge for clinical signs of illness including body weights, health score, morbidity and mortality.
Lung lesions and peribronchiolitis of all deceased and surviving animals were characterized (Table 9).

LPS-induced fever = assay: Antipyretic activity, fever induced by LPS in rats; format: in vivo, Sprague Dawley rats
Protocol: The body temperature of rats was taken at 0 (2 hours after the challenge), 90 min, 180 min, and 270 min after the administration of the test compounds.

H1N1 virus [3] = assay: H1N1 virus infection mouse model (Example 67); format: in vivo, mice; conditions: transdermal once a day
Protocol: A total of seventy mice (7 groups, 10/group) were used in this study. At day 0, mice were anesthetized with isoflurane and held in a dorsal recumbent position for administration of 0.1×TCID50/mouse virus (new batch) by internasal instillation, from day 2 post challenge, mice were received a single dose of different concentrations of test article or vehicle control once a day up to 15th day with dose initiation on day 2 post challenge. Group 1 served as an infected control group and was treated with vehicle (35% ethanol). 7% of (pyrrolidin-2-yl)methyl 2-[(2,3-dimethylphenyl)amino]benzoate hydrochloride in 35% ethanol (low dose: 25.0 mg/kg, group 2, mid dose: 50.1 mg/kg, group 3, and high dose: 100.1 mg/kg, group 4) and 7% of (pyrrolidin-2-yl)methyl α-methyl-4-(2-thienylcarbonyl)benzeneacetate hydrochloride in 35% ethanol (low dose: 24.9 mg/kg, group 5, mid dose: 49.8 mg/kg, group 6, and high dose: 99.6 mg/kg, group 7) and vehicle (35% ethanol) were given by transdermal on the back of animal in an area of 2 cm×5 cm, 1.5 cm×3.5 cm, or 1 cm×2.5 cm for high, middle or low dose. Mice were observed following viral challenge for clinical signs of illness including body weights, health score, morbidity and mortality.
Lung lesions and peribronchiolitis of all deceased and surviving animals were characterized (Table 11).

H1N1 virus [4] = assay: H1N1 virus infection mouse model (Example 68); format: in vivo, mice; conditions: transdermal once a day
Protocol: A total of seventy mice (7 groups, 10/group) were used in this study. At day 0, mice were anesthetized with isoflurane and held in a dorsal recumbent position for administration of 0.1×TCID50/mouse virus (new batch) by internasal instillation, from day 2 post challenge, mice were received a single dose of different concentrations of test article or vehicle control once a day up to 15th day with dose initiation on day 2 post challenge. Group 1 served as an infected control group and was treated with vehicle (35% ethanol). 7% (pyrrolidin-2-yl)methyl 5-(2,4-difluorophenyl) salicylate hydrochloride in 35% ethanol (low dose: 25.0 mg/kg, group 2, mid dose: 49.9 mg/kg, group 3, and high dose: 99.8 mg/kg, group 4) and 7% (pyrrolidin-2-yl)methyl 5-(2,4-difluorophenyl) acetylsalicylate hydrochloride in 35% ethanol (low dose: 24.7 mg/kg, group 5, mid dose: 49.4 mg/kg, group 6, and high dose: 98.7 mg/kg, group 7) and vehicle (35% ethanol) were given by transdermal on the back of animal in an area of 2 cm×5 cm, 1.5 cm×3.5 cm, or 1 cm×2.5 cm for high, middle or low dose. Mice were observed following viral challenge for clinical signs of illness including body weights, health score, morbidity and mortality.
Lung lesions and peribronchiolitis of all deceased and surviving animals were characterized (Table 13).

[5] = test system: cecal slurry-induced sepsis; assay: Cecal slurry-induced sepsis mouse model (Example 75); format: in vivo, C57/BL6 mice; conditions: transdermal once a day
Protocol: as §1, with “seventy C57/BL6” for “seventy”, “of 10 mg/mouse cecal slurry” for “of 0.1×TCID50/mouse virus (new batch)”, “by intraperitoneal (IP) injections,” for “by internasal instillation,”, “from hour” for “from day”, “on hour” for “on day”

paw edema = assay: Antiinflammatory activity, carrageenan paw edema in rats; format: in vivo, Wistar Rats; conditions: topical, 100 mg/kg

| Compound | The cumulative amount of test compounds ([1]; 1 h) [mg] | The cumulative amount of test compounds ([1]; 2 h) [mg] | The cumulative amount of test compounds ([1]; 4 h) [mg] | The cumulative amount of test compounds ([1]; 8 h) [mg] | other results |
| --- | --- | --- | --- | --- | --- |
| CCN(CC)CCOC(=O)CC1(CS[C@H](CCc2ccccc2C(C)(C)O)c2cccc(C=Cc3ccc4ccc(Cl)cc4n3)c2)CC1.Cl [Example 3] | 0.36 | 0.78 | 1.77 | 3.87 |  |
| Cl.O=C(OCC1CCCN1)C(c1ccc(OCc2ccc3ccccc3n2)cc1)C1CCCC1 (centres unmarked) [Example 6, (pyrrolidin-2-yl)methyl 2-cyclopentyl-2-[4-(quinolin-2-ylmethoxy)phenyl]acetate hydrochloride] | 0.52 | 1.03 | 2.10 | 4.19 |  |
| CN(C)C(=O)CCSC(SCCC(=O)OCC1CCCN1)c1cccc(/C=C/c2ccc3ccc(Cl)cc3n2)c1.Cl (centres unmarked) [Example 7, (pyrrolidin-2-yl)methyl 3-[[3-[(E)-2-(7-chloroquinolin-2-yl)ethenyl]phenyl]-[3-(dimethylamino)-3-oxopropyl]sulfanylmethyl]sulfanylpropanoate hydrochloride] | 0.46 | 1.01 | 2.09 | 4.29 |  |
| CC(=O)O.CCN(CC)CCOC(=O)CC1=C(C)/C(=C/c2ccc([S+](C)[O-])cc2)c2ccc(F)cc21 (centres unmarked) [Example 8] |  |  |  |  | survival (H1N1 virus [2]; group 5, low dose 25.5 mg/kg): 60%; survival (H1N1 virus [2]; group 6, mid dose 50.9 mg/kg): 70%; survival (H1N1 virus [2]; group 7, high dose 101.9 mg/kg): 50% |
| CC(C(=O)OCC1CCCN1)c1ccc(-c2ccccc2)c(F)c1.Cl (centres unmarked) [Example 15, (pyrrolidin-2-yl)methyl 2-(2-fluorobiphenyl-4-yl) propanoate hydrochloride] |  |  |  |  | body temperature (Mean) (LPS-induced fever; T = 0 min (2 hours after LPS challenge), transdermal, 20 mg/kg): 38.30; body temperature (Mean) (LPS-induced fever; T = 90 min, transdermal, 20 mg/kg): 37.37; body temperature (Mean) (LPS-induced fever; T = 180 min, transdermal, 20 mg/kg): 36.78; body temperature (Mean) (LPS-induced fever; T = 270 min, transdermal, 20 mg/kg): 36.65; survival (H1N1 virus [2]; group 2, low dose 25.0 mg/kg): 40%; survival (H1N1 virus [2]; group 3, mid dose 50.0 mg/kg): 50%; survival (H1N1 virus [2]; group 4, high dose 100.0 mg/kg): 60% |
| Cc1cccc(Nc2ccccc2C(=O)OCC2CCCN2)c1C.Cl (centres unmarked) [Example 17, (pyrrolidin-2-yl)methyl 2-[(2,3-dimethylphenyl)amino]benzoate hydrochloride] |  |  |  |  | survival (H1N1 virus [3]; group 2, low dose 25.0 mg/kg): 30%; survival (H1N1 virus [3]; group 3, mid dose 50.1 mg/kg): 50%; survival (H1N1 virus [3]; group 4, high dose 100.1 mg/kg): 50% |
| CCCc1c(OCCCS(=O)(=O)c2ccc(C(=O)CCC(=O)OCC3CCCN3)cc2)ccc(C(C)=O)c1O.Cl (centres unmarked) [Example 19] | 0.50 | 1.02 | 2.18 | 4.48 |  |
| Cl.O=C(OCC1CCCN1)c1cc(-c2ccc(F)cc2F)ccc1O (centres unmarked) [Example 27, (pyrrolidin-2-yl)methyl 5-(2,4-difluorophenyl) salicylate hydrochloride] |  |  |  |  | survival (H1N1 virus [4]; group 2, low dose 25.0 mg/kg): 30%; survival (H1N1 virus [4]; group 3, mid dose 49.9 mg/kg): 50%; survival (H1N1 virus [4]; group 4, high dose 99.8 mg/kg): 60% |
| CC(=O)Oc1ccc(-c2ccc(F)cc2F)cc1C(=O)OCC1CCCN1.Cl (centres unmarked) [Example 28, (pyrrolidin-2-yl)methyl 5-(2,4-difluorophenyl) acetylsalicylate hydrochloride] |  |  |  |  | survival (H1N1 virus [4]; group 5, low dose 24.7 mg/kg): 40%; survival (H1N1 virus [4]; group 6, mid dose 49.4 mg/kg): 60%; survival (H1N1 virus [4]; group 7, high dose 98.7 mg/kg): 70% |
| CC(C(=O)OCC1CCCN1)c1cccc(Oc2ccccc2)c1.Cl (centres unmarked) [Example 30, (pyrrolidin-2-yl)methyl 2-(3-phenoxyphenyl) propionate hydrochloride] |  |  |  |  | survival ([5]; group 2, low dose 25.1 mg/kg): 10%; survival ([5]; group 3, mid dose 50.2 mg/kg): 30%; survival ([5]; group 4, high dose 100.3 mg/kg): 40% |
| CC(C(=O)OCC1CCCN1)c1ccc(C(=O)c2cccs2)cc1.Cl (stereo not drawn) [Example 33, (pyrrolidin-2-yl)methyl α-methyl-4-(2-thienylcarbonyl)benzeneacetate hydrochloride] |  |  |  |  | survival (H1N1 virus [3]; group 5, low dose 24.9 mg/kg): 60%; survival (H1N1 virus [3]; group 6, mid dose 49.8 mg/kg): 50%; survival (H1N1 virus [3]; group 7, high dose 99.6 mg/kg): 40% |
| CC(C)Cc1ccc(C(C)C(=O)O)cc1 (centres unmarked) [Ibuprofen, reference compound] |  |  |  |  | anti-inflammatory activity (in words) (paw edema): did not show any anti-inflammatory activity; body temperature (Mean) (LPS-induced fever; T = 0 min (2 hours after LPS challenge), group C, topical, 100 mg/kg, 7% in 70% ethanol): 38.18; body temperature (Mean) (LPS-induced fever; T = 90 min, group B, oral, 100 mg/kg): 38.01; body temperature (Mean) (LPS-induced fever; T = 90 min, group C, topical, 100 mg/kg, 7% in 70% ethanol): 38.26; body temperature (Mean) (LPS-induced fever; T = 180 min, group B, oral, 100 mg/kg): 37.34; body temperature (Mean) (LPS-induced fever; T = 180 min, group C, topical, 100 mg/kg, 7% in 70% ethanol): 38.27; body temperature (Mean) (LPS-induced fever; T = 270 min, group B, oral, 100 mg/kg): 37.02; body temperature (Mean) (LPS-induced fever; T = 270 min, group C, topical, 100 mg/kg, 7% in 70% ethanol): 37.98; antipyretic activity (in words) (LPS-induced fever; topical, 100 mg/kg): did not show any antipyretic activity |
| CCCc1c(OCCCS(=O)(=O)c2ccc(C(=O)CCC(=O)O)cc2)ccc(C(C)=O)c1O [Parent drug-1] | 0.000 | 0.001 | 0.001 | 0.002 |  |
| CC(C)c1ccc2c(c1)c(SC(C)(C)C)c(CC(C)(C)C(=O)O)n2Cc1ccc(Cl)cc1 [Parent drug-2] | 0.001 | 0.001 | 0.001 | 0.003 |  |
| CN(C)C(=O)CCS[C@H](SCCC(=O)O)c1cccc(/C=C/c2ccc3ccc(Cl)cc3n2)c1 [Parent drug-4] | 0.001 | 0.001 | 0.001 | 0.002 |  |
| O=C(O)C(c1ccc(OCc2ccc3ccccc3n2)cc1)C1CCCC1 (centres unmarked) [Parent drug-5] | 0.001 | 0.001 | 0.001 | 0.002 |  |
| CC(c1cc2ccccc2s1)N(O)C(N)=O (centres unmarked) [Parent drug-6] | 0.001 | 0.001 | 0.001 | 0.003 |  |
| O=C(O)Cc1ccccc1Nc1c(Cl)cccc1Cl [Parent drug-8] | 0.000 | 0.001 | 0.002 | 0.003 |  |
